Measurements from ChEMBL document CHEMBL5260849, “Current advances in Vibrio harveyi quorum sensing as drug discovery targets” (Eur J Med Chem, 2020).

How the values were obtained:
[1] = target: LuxP/Q (Vibrio harveyi) (UniProt P54300+P54302); assay: Antagonist activity against Vibrio harveyi BB886 LuxPQ assessed as inhibition of AI-2 induced bioluminescence at 40 uM and measured after 6 hrs by bioluminescence assay; format: protein-complex assay
[2] = Inhibition of quorum-sensing system in Vibrio harveyi MM32 assessed as inhibition of AI-2 mediated bioluminescence incubated for 4 to 6 hrs by bioluminescence assay
[3] = Inhibition of quorum-sensing system in Vibrio harveyi BB170 assessed as inhibition of AI-2 at 0.1 to 10 uM and measured after 24 hrs by bioluminescence assay; settings: dose 0.1-10 µM
[4] = target: LuxP/Q (Vibrio harveyi, UniProt P54300+P54302); assay: Antagonist activity against LuxPQ quorum sensing system in Vibrio harveyi MM32 assessed as inhibition of luminescence intensity incubated for 3 to 4 hrs by luminescence microplate reader analysis; format: protein-complex assay
Chain of LuxP/Q (P54300 whole entry): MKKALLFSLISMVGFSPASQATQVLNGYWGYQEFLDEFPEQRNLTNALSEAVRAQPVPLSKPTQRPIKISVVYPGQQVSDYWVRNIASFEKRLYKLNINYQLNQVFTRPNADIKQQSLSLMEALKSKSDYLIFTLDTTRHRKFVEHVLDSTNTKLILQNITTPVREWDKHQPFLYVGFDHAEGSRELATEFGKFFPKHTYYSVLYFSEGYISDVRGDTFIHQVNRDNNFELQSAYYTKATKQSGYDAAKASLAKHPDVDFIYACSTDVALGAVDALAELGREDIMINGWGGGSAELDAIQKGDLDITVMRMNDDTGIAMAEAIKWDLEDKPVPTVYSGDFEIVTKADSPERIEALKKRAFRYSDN
Chain of LuxP/Q (P54302 whole entry): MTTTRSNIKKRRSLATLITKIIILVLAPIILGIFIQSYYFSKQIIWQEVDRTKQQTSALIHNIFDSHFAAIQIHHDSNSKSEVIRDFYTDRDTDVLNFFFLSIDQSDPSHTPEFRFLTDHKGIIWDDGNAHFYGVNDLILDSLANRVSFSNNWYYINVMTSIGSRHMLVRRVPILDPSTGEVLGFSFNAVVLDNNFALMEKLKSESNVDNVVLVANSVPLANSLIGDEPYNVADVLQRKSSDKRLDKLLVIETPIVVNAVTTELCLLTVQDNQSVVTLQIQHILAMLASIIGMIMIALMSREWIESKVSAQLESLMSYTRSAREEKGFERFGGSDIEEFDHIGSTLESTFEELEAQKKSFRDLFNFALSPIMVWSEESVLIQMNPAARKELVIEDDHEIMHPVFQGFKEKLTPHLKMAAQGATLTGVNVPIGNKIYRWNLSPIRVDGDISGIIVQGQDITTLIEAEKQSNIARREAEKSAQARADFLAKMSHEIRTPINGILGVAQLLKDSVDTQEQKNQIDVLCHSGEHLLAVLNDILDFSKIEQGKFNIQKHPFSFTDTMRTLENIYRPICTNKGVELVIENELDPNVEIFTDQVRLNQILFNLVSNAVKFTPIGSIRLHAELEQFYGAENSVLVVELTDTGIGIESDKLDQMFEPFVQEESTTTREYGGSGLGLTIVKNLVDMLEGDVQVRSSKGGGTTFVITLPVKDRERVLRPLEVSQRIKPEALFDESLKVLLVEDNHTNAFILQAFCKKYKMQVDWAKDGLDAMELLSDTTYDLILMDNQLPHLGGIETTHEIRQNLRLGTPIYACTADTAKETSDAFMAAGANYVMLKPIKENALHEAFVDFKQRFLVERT

[5] = target: T1, Autoinducer 1 sensor kinase/phosphatase LuxN (Vibrio harveyi, UniProt P0C5S6); assay: Antagonist activity against Vibrio harveyi BB120 LuxN assessed as inhibition of AI-2 regulated bioluminescence and measured after 6 hrs by bioluminescence assay
T1 sequence (P0C5S6 whole entry): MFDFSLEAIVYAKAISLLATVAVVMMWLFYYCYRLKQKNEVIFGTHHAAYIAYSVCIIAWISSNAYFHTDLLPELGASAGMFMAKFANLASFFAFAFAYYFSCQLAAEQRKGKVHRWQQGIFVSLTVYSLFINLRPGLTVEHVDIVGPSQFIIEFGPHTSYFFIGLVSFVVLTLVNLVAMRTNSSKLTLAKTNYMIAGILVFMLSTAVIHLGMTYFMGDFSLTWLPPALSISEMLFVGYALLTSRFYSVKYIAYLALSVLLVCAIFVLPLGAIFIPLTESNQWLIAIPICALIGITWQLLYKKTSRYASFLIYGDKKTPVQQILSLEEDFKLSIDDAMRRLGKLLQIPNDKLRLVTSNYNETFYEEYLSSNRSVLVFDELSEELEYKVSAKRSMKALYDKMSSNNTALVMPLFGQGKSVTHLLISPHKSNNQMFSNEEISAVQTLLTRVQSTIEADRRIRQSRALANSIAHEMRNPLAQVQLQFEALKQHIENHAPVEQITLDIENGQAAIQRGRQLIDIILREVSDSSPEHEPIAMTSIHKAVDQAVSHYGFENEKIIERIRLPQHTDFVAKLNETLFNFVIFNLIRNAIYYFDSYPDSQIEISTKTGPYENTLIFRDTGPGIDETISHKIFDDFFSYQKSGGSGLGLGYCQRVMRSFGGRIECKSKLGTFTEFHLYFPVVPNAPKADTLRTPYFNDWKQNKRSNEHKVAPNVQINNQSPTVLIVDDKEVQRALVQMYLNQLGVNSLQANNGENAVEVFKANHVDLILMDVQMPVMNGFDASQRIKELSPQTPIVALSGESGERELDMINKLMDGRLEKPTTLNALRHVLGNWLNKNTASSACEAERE

[6] = target: T2, HTH-type transcriptional regulator LuxR (Vibrio harveyi) (UniProt P21308); assay: Inhibition of LuxR quorum sensing system in Vibrio harveyi BB120 assessed as inhibition of autoinducer-2 induced luxR activity at 100 uM for 16 hrs by bioluminescence assay
T2 sequence (whole entry): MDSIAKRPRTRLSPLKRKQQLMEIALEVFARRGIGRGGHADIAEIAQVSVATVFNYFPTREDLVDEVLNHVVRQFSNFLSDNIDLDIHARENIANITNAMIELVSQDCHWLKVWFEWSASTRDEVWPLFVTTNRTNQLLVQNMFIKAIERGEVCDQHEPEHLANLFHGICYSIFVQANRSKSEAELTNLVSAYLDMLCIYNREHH

[7] = Inhibition of quorum-sensing system in Vibrio harveyi BB170 assessed as inhibition of LuxU induced bioluminescence by bioluminescence assay; set-up: concentration or dose not given beside the values; settings: concentration not given here
[8] = target: Autoinducer 2-binding periplasmic protein LuxP (Vibrio harveyi) (UniProt P54300); assay: Antagonist activity against LuxP signalling in Vibrio harveyi BB170 assessed as inhibition of AI-2 regulated bioluminescence at 20 to 40 uM and measured after 2.5 hrs by bioluminescence assay; settings: filed as antagonist, dose 20-40 µM
Chain of Autoinducer 2-binding periplasmic protein LuxP (Vibrio harveyi) (P54300 whole entry): as the sequence (P54300 whole entry) above

[9] = system: Vibrio harveyi; assay: Inhibition of CAI-1 mediated quorum-sensing in Vibrio harveyi JMH626 assessed as inhibition of CAI-1 mediated luminescence at 2 uM by bioluminescence assay
[10] = target: T3, Autoinducer 1 sensor kinase/phosphatase LuxN (Vibrio harveyi) (UniProt P0C5S6); assay: Inhibition of LuxN quorum sensing signaling in Vibrio harveyi BB886 assessed as inhibition of N-acylhomoserine lactone (HAI-1) activity by measuring bioluminescence for every 20 mins by autoinducer bioassay
T3 sequence (whole entry): T1 sequence (P0C5S6 whole entry)

[11] = system: Vibrio harveyi; assay: Inhibition of Vibrio harveyi BB886 LuxS assessed as inhibition of autoinducer-2 induced QS activity at 100 uM for 16 hrs by bioluminescence assay
[12] = system: Vibrio harveyi; assay: Inhibition of biofilm formation in Vibrio harveyi BB120 at 500 uM for 24 hrs by crystal violet assay; format: functional
[13] = Toxicity in […] mouse with abdominal infection assessed survival rate at 4.5 microg/g,ip and measured after 4 days; settings: in vivo, dose 4.5 µg/g, time 4 day
[14] = target: T1, Autoinducer 1 sensor kinase/phosphatase LuxN; assay: Antagonist activity at LuxN signaling in Vibrio harveyi HLS253 assessed as inhibition of 3-hydroxybutanoyl homoserine lactone induced bioluminescence by autoinducer based bioluminescence assay

COc1ccc(CCC(=O)N[C@@H]2[C@@H](CO)OC(OC)[C@@H]2O)cc1 (some centres not stated)
inhibition ([1]; filed as antagonist): 40%

CSC1=CS(=O)(=O)c2ccccc21
IC50 [2]: 41 µM

CCCCCCCCCCCCCCCC(=O)O
inhibition [3]: 25%

Cc1ccc(B(O)O)c(F)c1
IC50 [4]: 4 µM

[N-]=[N+]=N[C@H]1[C@@H](O)[C@H](n2cnc3c(N)ncnc32)O[C@@H]1CO
IC50 [5]: 2.7 µM

Fc1ccccc1-c1ccc(CNCc2ccco2)o1
IC50 [2]: 14.8 µM

CCCCCCCC/C=C/C=O
inhibition [6]: 94%

COc1ccc(/C=C/C=O)cc1
inhibition [6]: 34%

CCCCCCC/C=C/C=O
inhibition [6]: 90%

CSc1nccc(Oc2ccccc2Cl)n1
IC50 [2]: 3.42 µM

CCCCC/C=C/C=O
inhibition [6]: 71%

COc1ccc(C2CC(=O)c3c(O)cc(O[C@@H]4O[C@H](CO[C@@H]5O[C@@H](C)[C@H](O)[C@@H](O)[C@H]5O)[C@@H](O)[C@H](O)[C@H]4O)cc3O2)cc1O (some centres not stated)
inhibition [7]: 10%

C[C@@H]1O[C@@H](O[C@H]2[C@H](Oc3cc(O)c4c(c3)OC(c3ccc(O)c(O)c3)CC4=O)O[C@H](CO)[C@@H](O)[C@@H]2O)[C@H](O)[C@H](O)[C@H]1O (some centres not stated)
inhibition [7]: > 20%

CS(=O)(=O)/C=C/c1ccccc1
inhibition [6]: 73%

C=CCOC(=O)C1=CS(=O)(=O)c2ccccc21
IC50 [2]: 3.06 µM

CC(C)CC(=O)C(=O)C(O)CO (configuration not stated)
inhibition [8]: 50%

CCCCCCCC/C=C\CCCCCCCC(=O)O
inhibition [3]: > 75%

CCCCC/C=C\C/C=C\CCCCCCCC(=O)O
inhibition [3]: > 99%

CCCCCCC[C@@H](C/C=C/CCC(=O)O)OC
inhibition [9]: 100%

CCC/C=C/C=O
inhibition [6]: 35%

CCCC/C=C/C(C)=O
inhibition [6]: 80%

O=C1CC(c2ccc(O)cc2)Oc2cc(O)cc(O)c21 (configuration not stated)
inhibition [7]: 80%

CC(=O)C1=CCCCC1
inhibition [6]: 16%

COc1ccc(CCC(=O)N[C@H]2[C@@H](O)[C@H](n3cnc4c(N)ncnc43)O[C@@H]2CO)cc1
inhibition ([1]; filed as antagonist): 80%

O=C(O)c1ccc(-c2c(Cl)cc([N+](=O)[O-])cc2Cl)o1
IC50 [2]: 40.1 µM

CC(C)=CCC/C(C)=C/COc1c2ccoc2cc2oc(=O)ccc12
inhibition [10]: 96.7%

NC(=O)/C=C/c1ccccc1
inhibition [6]: 61%

CCCCCCCCCCCCCCCCCC(=O)O
inhibition [3]: > 25%

COc1cccc(/C=C/C(=O)N[C@H]2[C@@H](O)[C@H](n3cnc4c(N)ncnc43)O[C@@H]2CO)c1
inhibition [1]: 20%

OB(O)c1ccc(OCc2ccccc2)cc1
IC50 [4]: 4 µM

O=C/C=C/c1ccc([N+](=O)[O-])cc1
inhibition [6]: 33%

O=c1cc(-c2ccc(O)cc2)oc2cc(O)cc(O)c12
inhibition [7]: 60%

CN(C)c1ccc(/C=C/C=O)cc1
inhibition [6]: 17%

CCCC/C=C/C(=O)O
inhibition [6]: 36%

CCCCCC/C=C/C=O
inhibition [6]: 100%

O=C1C=C/C(=C/Br)O1
inhibition [11]: 96%

Cc1ccc(B(O)O)cc1F
IC50 [4]: 9 µM

COc1ccc(C2CC(=O)c3c(O)cc(O[C@@H]4O[C@H](CO)[C@@H](O)[C@H](O)[C@H]4O[C@@H]4O[C@@H](C)[C@H](O)[C@@H](O)[C@H]4O)cc3O2)cc1O (some centres not stated)
inhibition [7]: > 20%

CCCCCCCCCC/C=C/C=O
inhibition [6]: 56%

CC(=O)/C=C/c1ccccc1
inhibition [6]: 78%

C/C(=C\COc1c2ccoc2cc2oc(=O)ccc12)CCC(O)C(C)(C)O (configuration not stated)
inhibition [10]: 96.7%

O=c1c(O)c(-c2ccc(O)cc2)oc2cc(O)cc(O)c12
inhibition [7]: > 99%

CCCCCC/C=C/C(C)=O
inhibition [6]: 100%

Brc1ccc(-c2cnco2)cc1
IC50 [2]: 60 µM

CCCCCCCCC/C=C/C=O
inhibition [6]: 87%

COC(=O)c1ccc(B(O)O)cc1
IC50 [4]: 5 µM | inhibition ([1]; filed as antagonist): > 80%

COc1ccccc1/C=C/C=O
inhibition [6]: 14%

COc1cc(O)cc([C@@H]2CC(=O)c3c(OC)cc(O)cc3O2)c1
inhibition at 500 µM [12]: 68%

NC(=S)CS(=O)(=O)c1ccccn1
IC50 [2]: 55 µM

O=C/C=C/c1ccccc1[N+](=O)[O-]
inhibition [6]: 62%

CCCC/C=C/C=O
inhibition [6]: 55%

Nc1ncnc2c1ncn2[C@@H]1O[C@H](CO)[C@@H](N)[C@H]1O
IC50 [5]: 2.9 µM

COc1ccc(-c2cc(=O)c3c(OC)c(OC)c(OC)cc3o2)cc1OC
inhibition [7]: 60%

CC(C)C(=O)C(=O)C(O)CO (configuration not stated)
inhibition [8]: 50%

Cn1cnnc1SCC(=O)Nc1nc2ccccc2s1
IC50 [2]: 5.51 µM

CCCCC/C=C/C(C)=O
inhibition [6]: 100%

CCCCC1=C(Br)/C(=C/Br)OC1=O
survival at 96 h [13]: 90%

NC(=S)CS(=O)(=O)c1cccs1
inhibition ([1]; filed as antagonist): 60%

O=C(c1ccc(O)cc1)c1ccc(S(=O)(=O)c2ccc(O)cc2)cc1
IC50 [14]: 2.6 µM

CC(=O)CCc1ccccc1
inhibition [6]: 13%

O=c1c(O)c(-c2ccc(O)c(O)c2)oc2cc(O)cc(O)c12
inhibition [7]: > 99%

O=C/C=C/c1ccc(Cl)c(Cl)c1
inhibition [6]: 99%

CC(C)(C)S(=O)(=O)CC#N
IC50 [2]: 110 µM

O=C/C=C/c1ccccc1
inhibition [6]: 65%

Brc1ccc2ncsc2c1
IC50 [2]: 88 µM

CC/C=C/C=O
inhibition [6]: 58%

CC(=O)N1CCc2cc(S(=O)(=O)NC(CC(C)C)C(=O)CCc3ccc(O)cc3)ccc21 (configuration not stated)
IC50 [14]: 2.7 µM

CCCCCC/C=C/C(=O)CO
inhibition [6]: 17%

COc1cc(/C=C/C(=O)c2c(O)cc(O)cc2OC)ccc1O
inhibition at 500 µM [12]: 60%

O=C/C=C/c1ccc(Cl)c(C(F)(F)F)c1
inhibition [6]: 97%

CC1=CCn2nc(N)c(/N=N/c3ccccc3)c2N1
IC50 [2]: 19.8 µM

O=C/C=C/c1c(F)c(F)c(F)c(F)c1F
inhibition [6]: 95%

COc1ccc(CCC(=O)NC[C@H]2[C@@H](O)[C@H](n3cnc4c(N)ncnc43)O[C@@H]2CO)cc1
inhibition [1]: 20%

C[C@@H]1O[C@@H](O[C@H]2[C@H](Oc3cc(O)c4c(c3)OC(c3ccc(O)cc3)CC4=O)O[C@H](CO)[C@@H](O)[C@@H]2O)[C@H](O)[C@H](O)[C@H]1O (some centres not stated)
inhibition [7]: 40%

CCCCCC/C=C/C(=O)OC
inhibition [6]: 59%

N#Cc1ccc(B(O)O)cc1
IC50 [4]: 6 µM
